Laboratory results reported in patent US12466822B2, “Heterocyclic compounds as immunomodulators” (Incyte Corporation, priority 2016, dated 2025).

Molecular target: T1, PD-1/PD-L1 protein/protein interaction (recombinant human PD-L1 protein (19-238), recombinant human PD-1 protein (25-167)) (Homo sapiens, UniProt Q9NZQ7)
T1 construct: Recombinant human PD-L1 protein (19-238) with a His-tag at the C-terminus; purchased AcroBiosystems PD1-H5229 (PD-L1-His); PD1-H5257 (PD-1-Fc)
Test: PD-1/PD-L1 Homogeneous Time-Resolved Fluorescence (HTRF) Binding Assay
Details: 25° C., PBS buffer (pH 7.4), 40 minutes preincubation with inhibitors
Method: The assays were conducted in a standard black 384-well polystyrene plate with a final volume of 20 μL. Inhibitors were first serially diluted in DMSO and then added to the plate wells before the addition of other reaction components. The final concentration of DMSO in the assay was 1%. The assays were carried out at 25° C. in the PBS buffer (pH 7.4) with 0.05% Tween-20 and 0.1% BSA. Recombinant human PD-L1 protein (19-238) with a His-tag at the C-terminus was purchased from AcroBiosystems (PD1-H5229). Recombinant human PD-1 protein (25-167) with Fc tag at the C-terminus was also purchased from AcroBiosystems (PD1-H5257). PD-L1 and PD-1 proteins were diluted in the assay buffer and 10 μL was added to the plate well. Plates were centrifuged and proteins were preincubated with inhibitors for 40 minutes. The incubation was followed by the addition of 10 μL of HTRF detection buffer supplemented with Europium cryptate-labeled anti-human IgG (PerkinElmer-AD0212) specific for Fc and anti-His antibody conjugated to SureLight®-Allophycocyanin (APC, PerkinElmer-AD0059H). After centrifugation, the plate was incubated at 25° C. for 60 min. before reading on a PHERAstar FS plate reader (665 nm/620 nm ratio). Final concentrations in the assay were […], 10 nM PD-L1, 1 nM europium anti-human IgG and 20 nM anti-His-Allophycocyanin. IC50 determination was performed by fitting the curve of percent control activity versus the log of the inhibitor concentration using the GraphPad Prism 5.0 software.

T1 sequence (Q9NZQ7 19-238): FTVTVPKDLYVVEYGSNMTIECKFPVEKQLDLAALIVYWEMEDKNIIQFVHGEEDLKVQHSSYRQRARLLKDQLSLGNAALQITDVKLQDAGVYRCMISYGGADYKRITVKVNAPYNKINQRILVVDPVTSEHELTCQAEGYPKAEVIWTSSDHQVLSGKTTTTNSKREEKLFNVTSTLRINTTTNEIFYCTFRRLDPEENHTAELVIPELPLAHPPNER

| SMILES | IC50 [nM] |
| --- | --- |
| Cc1c(Nc2nccc3cc(CN4CC(C(=O)O)C4)cnc23)cccc1-c1cccc(NC(=O)c2ccc(CN3CC[C@@H](O)C3)cn2)c1Cl [Example 8, (R)-1-((8-((2′-chloro-3′-(5-((3-hydroxypyrrolidin-1-yl)methyl)picolinamido)-2-methyl-[1,1′-biphenyl]-3-yl)amino)-1,7-naphthyridin-3-yl)methyl)azetidine-3-carboxylic acid] | ≤ 10 |
| Cc1c(Nc2nccc3cc(CN4CC[C@@H](O)C4)cnc23)cccc1-c1cccc(Nc2nccc3cc(CN4CC[C@@H](C(=O)N(C)C)C4)cnc23)c1C [Example 26, (R)-1-((8-(3′-(3-(((R)-3-hydroxypyrrolidin-1-yl)methyl)-1,7-naphthyridin-8-ylamino)-2,2′-dimethylbiphenyl-3-ylamino)-1,7-naphthyridin-3-yl)methyl)-N,N-dimethylpyrrolidine-3-carboxamide] | ≤ 10 |
| Cc1c(Nc2nccc3cc(CN[C@@H](C)CO)cnc23)cccc1-c1cccc(NC(=O)c2nc3c(n2C)CCN(CC[C@H]2CC[C@H](C(=O)O)CC2)C3)c1Cl [Example 60, trans 4-(2-(2-(2-chloro-3′-(3-(((S)-1-hydroxypropan-2-ylamino)methyl)-1,7-naphthyridin-8-ylamino)-2′-methylbiphenyl-3-ylcarbamoyl)-1-methyl-6,7-dihydro-1H-imidazo[4,5-c]pyridin-5(4H)-yl)ethyl)cyclohexanecarboxylic acid] | ≤ 10 |
| O[C@@H]1CCN(Cc2cnc3c(Nc4cccc(-c5cccc(Nc6nccc7cc(CN8CC[C@@H](O)C8)cnc67)c5Cl)c4Cl)nccc3c2)C1 [Example 22, (3R,3′R)-1,1′-((((2,2′-dichloro-[1,1′-biphenyl]-3,3′-diyl)bis(azanediyl))bis(1,7-naphthyridine-8,3-diyl))bis(methylene))bis(pyrrolidin-3-ol)] | ≤ 10 |
| Cc1c(Nc2nccc3cc(CN4CC[C@@H](O)C4)cnc23)cccc1-c1cccc(-c2nc3c(s2)CNCC3)c1C [Example 35, (R)-1-((8-((2,2′-dimethyl-3′-(4,5,6,7-tetrahydrothiazolo[5,4-c]pyridin-2-yl)-[1,1′-biphenyl]-3-yl)amino)-1,7-naphthyridin-3-yl)methyl)pyrrolidin-3-ol] | ≤ 10 |
| O=C(O)[C@H]1CCN(Cc2cnc3c(Nc4cccc(-c5cccc(Nc6nccc7cc(CN8CC[C@H](O)C8)cnc67)c5Cl)c4Cl)nccc3c2)C1 [Example 83, (S)-1-((8-((2,2′-dichloro-3′-((3-(((S)-3-hydroxypyrrolidin-1-yl)methyl)-1,7-naphthyridin-8-yl)amino)-[1,1′-biphenyl]-3-yl)amino)-1,7-naphthyridin-3-yl)methyl)pyrrolidine-3-carboxylic acid] | ≤ 10 |
| OCCNCc1cnc2c(Nc3cccc(-c4cccc(Nc5nccc6cc(CN7CC[C@@H](O)C7)cnc56)c4Cl)c3Cl)nccc2c1 [Example 77, (R)-1-((8-((2,2′-dichloro-3′-((3-(((2-hydroxyethyl)amino)methyl)-1,7-naphthyridin-8-yl)amino)-[1,1′-biphenyl]-3-yl)amino)-1,7-naphthyridin-3-yl)methyl)pyrrolidin-3-ol] | ≤ 10 |
| Cc1c(COc2cc(OCc3cncc(C#N)c3)c(CN3CC[C@@H](C(=O)O)C3)cc2Cl)cccc1-c1cccc(Nc2nccc3cc(CN4CC[C@@H](O)C4)cnc23)c1C [Example 44, (R)-1-(5-chloro-2-((5-cyanopyridin-3-yl)methoxy)-4-((3′-((3-(((R)-3-hydroxypyrrolidin-1-yl)methyl)-1,7-naphthyridin-8-yl)amino)-2,2′-dimethyl-[1,1′-biphenyl]-3-yl)methoxy)benzyl)pyrrolidine-3-carboxylic acid] | ≤ 10 |
| Cc1c(Nc2nccc3cc(CN4CC[C@@H](O)C4)cnc23)cccc1-c1cccc(Nc2nccc3cc(CN4CC[C@H](C(=O)O)C4)cnc23)c1C [Example 10, (S)-1-((8-((3′-((3-(((R)-3-hydroxypyrrolidin-1-yl)methyl)-1,7-naphthyridin-8-yl)amino)-2,2′-dimethyl-[1,1′-biphenyl]-3-yl)amino)-1,7-naphthyridin-3-yl)methyl)pyrrolidine-3-carboxylic acid] | ≤ 10 |
| Cc1c(Nc2nccc3cc(CN[C@@H](C)CO)cnc23)cccc1-c1cccc(NC(=O)c2nc3c(n2C)CCN(C[C@H]2CC[C@H](C(=O)O)CC2)C3)c1Cl [Example 50, trans-4-((2-(2-chloro-3′-(3-(((S)-1-hydroxypropan-2-ylamino)methyl)-1,7-naphthyridin-8-ylamino)-2′-methylbiphenyl-3-ylcarbamoyl)-1-methyl-6,7-dihydro-1H-imidazo[4,5-c]pyridin-5(4H)-yl)methyl)cyclohexanecarboxylic acid] | ≤ 10 |

Further lines, results first:

| IC50 [nM] | SMILES |
| --- | --- |
| ≤ 10 | Cc1c(-c2nc3c(s2)CN(C(=O)CN(C)CCO)C3)cccc1-c1cccc(Nc2nccc3cc(CN4CC[C@@H](C(=O)O)C4)cnc23)c1Cl [Example 96, (R)-1-((8-((2-chloro-3′-(5-(N-(2-hydroxyethyl)-N-methylglycyl)-5,6-dihydro-4H-pyrrolo[3,4-d]thiazol-2-yl)-2′-methyl-[1,1′-biphenyl]-3-yl)amino)-1,7-naphthyridin-3-yl)methyl)pyrrolidine-3-carboxylic acid] |
| ≤ 10 | Cc1c(Nc2nccc3cc(CN4CC[C@@H](C(=O)O)C4)cnc23)cccc1-c1cccc(-c2nc3c(s2)CNCC3)c1C [Example 34, (R)-1-((8-((2,2′-dimethyl-3′-(4,5,6,7-tetrahydrothiazolo[5,4-c]pyridin-2-yl)-[1,1′-biphenyl]-3-yl)amino)-1,7-naphthyridin-3-yl)methyl)pyrrolidine-3-carboxylic acid] |
| 10 to 100 | CCN(C)CC(=O)N1Cc2nc(-c3cccc(-c4cccc(Nc5nccc6cc(CN7CC[C@H](CC(=O)O)C7)cnc56)c4Cl)c3C)sc2C1 [Example 93, (R)-2-(1-((8-(2-chloro-3′-(5-(2-(ethyl(methyl)amino)acetyl)-5,6-dihydro-4H-pyrrolo[3,4-d]thiazol-2-yl)-2′-methylbiphenyl-3-ylamino)-1,7-naphthyridin-3-yl)methyl)pyrrolidin-3-yl)acetic acid] |
| ≤ 10 | CCN(C)CC(=O)N1Cc2nc(-c3cccc(-c4cccc(Nc5nccc6cc(CN7CC[C@@H](C(=O)O)C7)cnc56)c4Cl)c3C)sc2C1 [Example 90, (R)-1-((8-((2-chloro-3′-(5-(N-ethyl-N-methylglycyl)-5,6-dihydro-4H-pyrrolo[3,4-d]thiazol-2-yl)-2′-methyl-[1,1′-biphenyl]-3-yl)amino)-1,7-naphthyridin-3-yl)methyl)pyrrolidine-3-carboxylic acid] |
| ≤ 10 | Cc1c(-c2nc3c(s2)CNCC3)cccc1-c1cccc(Nc2nccc3cc(CNCCO)cnc23)c1Cl [Example 1, 2-(((8-((2-chloro-2′-methyl-3′-(4,5,6,7-tetrahydrothiazolo[5,4-c]pyridin-2-yl)-[1,1′-biphenyl]-3-yl)amino)-1,7-naphthyridin-3-yl)methyl)amino)ethan-1-ol] |
| ≤ 10 | Cc1c(Nc2nccc3cc(CN4CC[C@@H](C(=O)O)C4)cnc23)cccc1-c1cccc(-c2nc3c(o2)CN(C(=O)CN(C)C)C3)c1C [Example 84, (R)-1-((8-((3′-(5-(dimethylglycyl)-5,6-dihydro-4H-pyrrolo[3,4-d]oxazol-2-yl)-2,2′-dimethyl-[1,1′-biphenyl]-3-yl)amino)-1,7-naphthyridin-3-yl)methyl)pyrrolidine-3-carboxylic acid] |
